{"source": "patent US20260198495A1", "about": "“BINARY INSECTICIDE COMPOSITION AND USE THEREOF” (SHENYANG SINOCHEM AGROCHEMICALS R & D CO., LTD., priority 2022, published 2026)", "assay_type_in_all_cases": "in vivo", "key": {"[1]": {"system": "Lipaphis erysimi (Kaltenbach)", "assay": "Joint toxicity of I-72 + pyrethrin, Example 47, Table 47", "settings": "Lipaphis erysimi; A = compound I-72, B = pyrethrin; cabbage leaf spraying; 48 hours; read-out: LC50", "experimental": "Test target: Lipaphis erysimi (Kaltenbach).\n(§1) Preparation of the pesticide solution: according to different test requirements, the test samples were accurately weighed respectively with an electronic analytical balance. The technical pesticides were dissolved in acetone, and then diluted with 0.1% Tween 80 water into a series of pesticide solutions with a certain concentration gradient according to the experimental design dosage.\nExperimental method: first, cabbage leaves with uniform and consistent Lipaphis erysimi (Kaltenbach) were selected, with about 30-40 insects on each leaf. Then, they were evenly sprayed with the pesticide solution in the order from low dosage to high dosage according to the experimental design, with 1.5 mL of the solution for each leaf and 3 replicates for each treatment. In addition, a blank control was set up.\n(§2) The treated test materials were placed in an observation room, and the temperature, humidity and illumination of the observation room could be adjusted as needed. The number of dead and live insects was investigated 48 hours later. […] Then, the co-toxicity coefficient of each ratio was calculated using the Sun Y-P method to evaluate the mixing effect (the same as in Example 1)."}, "[2]": {"system": "3rd-instar larvae of Ostrinia furnacalis Guenee", "assay": "Joint toxicity of I-72 + lambda-cyhalothrin, Example 42, Table 42", "settings": "A = compound I-72, B = lambda-cyhalothrin, corn stem dipping, 72 hours, read-out: LC50", "experimental": "Test target: 3rd-instar larvae of Ostrinia furnacalis Guenee.\nas §1\n(§3) Experimental method: first, tender corn stems were selected and dipped in the prepared pesticide solution for 10 s in the order from low dosage to high dosage according to the experimental design. After natural air-drying in the shade, they were placed in a 9-cm-diameter Petri dish with filter paper, and uniform and healthy test insects were introduced, with 10 insects for each treatment and 3 replicates for each treatment. In addition, a blank control was set up.\nas §2, with “72” for “48”"}, "[3]": {"system": "3rd-instar larvae of Hyphantria cunea", "assay": "Joint toxicity of I-72 + organophosphorus insecticides, poplar leaf dipping, Example 20, Table 20", "settings": "foliar, A = compound I-72, B = triazophos, poplar leaf dipping, 72 hours, read-out: LC50", "excerpt": "Test target: 3rd-instar larvae of Hyphantria cunea, a sensitive strain reared indoors.\nExperimental method: first, fresh and tender poplar leaves were selected, cut into small sections of 5 cm, and dipped in the prepared pesticide solution for 10 s in the order from low dosage to high dosage according to the experimental design. After natural air-drying in the shade, they were placed in a 9-cm-diameter Petri dish with filter paper, and uniform and healthy test insects were introduced, with 10 insects for each treatment and 3 replicates for each treatment. In addition, a blank control was set up.\nThe treated test materials were placed in an observation room, and the temperature, humidity and illumination of the observation room could be adjusted as needed. The number of dead and live insects was investigated 72 hours later."}, "[4]": {"system": "adult Phyllotreta striolata (Walker)", "assay": "Joint toxicity of I-72 + rotenone, insect dipping, Example 35, Table 35", "settings": "A = compound I-72, B = rotenone, insect dipping 10 s, read-out: LC50", "text": "Test target: adult Phyllotreta striolata (Walker), a strain reared indoors.\nExperimental method: the dipping method was adopted. Adult flea beetles of uniform size were put into an insect-dipping cage and dipped for 10 s in the order from low dosage to high dosage according to the experimental design, with 30 beetles for each treatment. The beetles were placed in a 9-cm-diameter Petri dish with filter paper, with 3 replicates for each treatment. In addition, a blank control was set up. The treated test materials were placed in an observation room, and the temperature, humidity and illumination of the observation room could be adjusted as needed.\n(§4) The test conditions, the preparation of the pesticide solution and the evaluation method were the same as those in Example 1."}, "[5]": {"system": "2nd-instar larvae of Chilo suppressalis (Walker)", "assay": "Joint toxicity of I-72 + azadirachtin, Example 36, Table 36", "settings": "A = compound I-72, B = azadirachtin, rice stalk spraying, 72 hours, chlorantraniliprole-resistant strain, read-out: LC50", "text": "Test target: 2nd-instar larvae of Chilo suppressalis (Walker). The insect source was collected from Nanchang, Jiangxi Province, and it is the 11th generation continuously cultured indoors, with a relatively high resistance level to amide pesticides such as chlorantraniliprole.\nExperimental method: the spraying method was adopted. Rice stalks with the same length and thickness were selected, cut into the same length, and evenly sprayed with the pesticide solution in the order from low dosage to high dosage according to the experimental design, with 1.5 mL of the pesticide solution for each treatment. The stalks were placed in a 6-cm-diameter Petri dish with filter paper. After natural air-drying in the shade, uniform and healthy test insects were introduced, with 10 insects for each treatment and 4 replicates for each treatment. In addition, a blank control was set up. The number of dead and live insects was investigated 72 hours later. The corrected mortality rate was calculated using the Abbott's formula, and the DPS data processing software was used for statistical analysis to calculate the toxicities (LC50 values) of the single test pesticides and the mixtures under the test ratios.\nas §4"}, "[6]": {"system": "2nd-instar larvae of Chilo suppressalis (Walker)", "assay": "whole plant or invertebrate", "settings": "Chilo suppressalis; resistant 2nd-instar larvae, rice stalk spraying, 72 h; A = compound I-72, B = spinetoram; read-out: LC50", "experimental": "In addition, a blank control was set up. The number of dead and live insects was investigated 72 hours later."}, "[7]": {"system": "mixed aphids of Myzus persicae (Sulzer)", "assay": "Joint toxicity of I-72 + matrine, Example 34, Table 34", "settings": "A = compound I-72, B = matrine, spraying on cabbage leaves with aphids, 48 hours, read-out: LC50", "text": "Test subject: mixed aphids of Myzus persicae (Sulzer), a sensitive strain reared indoors.\nExperimental method: the spraying method on leaves with aphids was adopted. Cabbage leaves with a certain number of Myzus persicae (Sulzer) were taken. The prepared pesticide solutions were evenly sprayed on both the front and back sides of the leaves in the order from low concentration to high concentration according to the experimental design. Then, the leaves were placed in a 6-cm-diameter Petri dish with filter paper. After natural air-drying in the shade, they were placed in the observation room. The experiment had 3 replicates set, and in addition, a blank control was set up. The number of dead and live insects was investigated 48 hours later. The corrected mortality rate was calculated using the Abbott's formula, and the DPS data processing software was used for statistical analysis to calculate the toxicities (LC50 values) of the single test pesticides and the mixtures under the test ratios.\nas §4"}, "[8]": {"system": "3-instar larvae of Ostrinia furnacnlis Guenee", "assay": "Joint toxicity of I-72 + flubendiamide, Example 61, Table 61", "settings": "A = compound I-72, B = flubendiamide, corn stem dipping, 72 hours, read-out: LC50", "experimental": "Test target: 3-instar larvae of Ostrinia furnacnlis Guenee.\nas §1, §3\nas §2, with “72” for “48”"}, "[9]": {"system": "Nilaparvata lugens (Stal) nymphs", "assay": "Joint toxicity of I-72 + imidacloprid, Example 70, Table 70", "settings": "A = compound I-72, B = imidacloprid, potted-seedling spraying, 72 hours, read-out: LC50", "experimental": "Test target: Nilaparvata lugens (Stal) nymphs, a sensitive strain reared indoors.\nas §1\nExperimental method: the activity of the mixture against the Nilaparvata lugens (Stal) nymphs was determined by adopting the potted-seedling spraying method. First, rice seedlings were planted in culture pots. Uniform spraying was performed with the pesticide solution in the order from low dosage to high dosage according to the experimental design, with 2 mL for each seedling. Then, Nilaparvata lugens nymphs of uniform size were transferred onto the rice seedlings, with 3 replicates for each treatment. In addition, a blank control was set up.\nas §2, with “72” for “48”"}}}
{"molecule": "CN(C(=O)c1ccc2c(c1)OC(F)(F)O2)c1cccc(C(=O)Nc2c(Br)cc(C(F)(C(F)(F)F)C(F)(F)F)cc2OC(F)F)c1F", "note": "[Compound I-72]", "values": [{"measurement": "LC50", "setting": "[1]", "result": 10.4, "unit": "µg/mL"}, {"measurement": "LC50", "setting": "[2]", "result": 0.805, "unit": "µg/mL"}, {"measurement": "LC50", "setting": "[3]", "result": 5.74, "unit": "µg/mL"}, {"measurement": "LC50", "setting": "[4]", "result": 1.81, "unit": "µg/mL"}, {"measurement": "LC50", "setting": "[5]", "result": 0.822, "unit": "µg/mL"}, {"measurement": "LC50", "setting": "[6]", "result": 0.811, "unit": "µg/mL"}, {"measurement": "LC50", "setting": "[7]", "result": 6.36, "unit": "µg/mL"}, {"measurement": "LC50", "setting": "[8]", "result": 0.804, "unit": "µg/mL"}, {"measurement": "LC50", "setting": "[9]", "result": 243, "unit": "µg/mL"}]}
